Data: ChEMBL document CHEMBL3351946, “Design and synthesis of potent antitumor water-soluble phenyl N-mustard-benzenealkylamide conjugates via a bioisostere approach” (Eur J Med Chem, 2014)
Activity calls are given as the source filed them. The rule behind the calls is not given here.

Assays:
[1] = Cytotoxicity against human DLD1 cells assessed as growth inhibition after 72 hrs by Alamar Blue assay; format: functional, cell-based; conditions: DLD-1, 72 h
[2] = Antitumor activity against human H3347 cells xenografted in nude mouse assessed as tumor growth inhibition at 30 mg/kg,iv qd administered for 6 days measured on day 16 relative to control; format: functional
Mus musculus [3] = experiment: Toxicity in nude mouse xenografted with human HCT116 cells assessed as body weight loss at 30 mg/kg,iv qd administered for 6 days measured on day 13 relative to control; format: organism-based, HCT-116; parameters: dose 30 mg/kg; conditions: in vivo, 144 h
HT-29 = experiment: Cytotoxicity against human HT-29 cells assessed as growth inhibition after 72 hrs by Alamar Blue assay; format: functional, cell-based; conditions: HT-29, 72 h
[4] = Antitumor activity against human HCT116 cells xenografted in nude mouse assessed as tumor growth inhibition at 30 mg/kg,iv qd administered for 6 days measured on day 15 relative to control; format: functional, HCT-116
[5] = Antitumor activity against human HCT116 cells xenografted in nude mouse assessed as tumor growth inhibition at 30 mg/kg,iv qd administered for 6 days measured on day 31 relative to control; format: functional; conditions: HCT-116, iv, read-out: TGI
Mus musculus [6] = experiment: Toxicity in nude mouse xenografted with human H3347 cells assessed as change in body weight at 30 mg/kg,iv qd administered for 6 days measured on day 31 relative to control; format: organism-based; parameters: dose 30 mg/kg; conditions: in vivo, 144 h
[7] = Antitumor activity against human H3347 cells xenografted in nude mouse assessed as tumor growth inhibition at 30 mg/kg,iv qd administered for 6 days measured on day 31 relative to control; format: functional; conditions: read-out: TGI
HCT-116 = experiment: Antitumor activity against human HCT116 cells xenografted in nude mouse assessed as survival at 30 mg/kg,iv qd administered for 6 days; format: functional, organism-based; parameters: dose 30 mg/kg
[8] = Cytotoxicity against human H3347 cells assessed as growth inhibition after 72 hrs by Alamar Blue assay; format: functional, cell-based; conditions: H3347, 72 h
Mus musculus [9] = experiment: Toxicity in nude mouse xenografted with human H3347 cells assessed as body weight loss at 30 mg/kg,iv qd administered for 6 days; format: organism-based; parameters: dose 30 mg/kg; conditions: in vivo, 144 h
H3347 = experiment: Antitumor activity against human H3347 cells xenografted in nude mouse assessed as survival at 30 mg/kg,iv qd administered for 6 days; format: functional, organism-based; parameters: dose 30 mg/kg
Mus musculus [10] = experiment: Toxicity in nude mouse xenografted with human HCT116 cells assessed as change in body weight at 30 mg/kg,iv qd administered for 6 days measured on day 31 relative to control; format: organism-based, HCT-116; parameters: dose 30 mg/kg; conditions: in vivo, 144 h
[11] = Cytotoxicity against human H1299 cells assessed as growth inhibition after 72 hrs by Alamar Blue assay; format: functional, cell-based; conditions: NCI-H1299, 72 h
[12] = Cytotoxicity against human H460 cells assessed as growth inhibition after 72 hrs by Alamar Blue assay; format: functional, cell-based; conditions: NCI-H460, 72 h
CCRF-CEM [13] = experiment: Cytotoxicity against vinblastine-resistant human CCRF-CEM cells assessed as growth inhibition after 72 hrs by Alamar Blue assay; format: functional, cell-based
[14] = Cytotoxicity against human HCT116 cells assessed as growth inhibition after 72 hrs by Alamar Blue assay; format: functional, cell-based; conditions: HCT-116, 72 h
CCRF-CEM [15] = experiment: Cytotoxicity against human CCRF-CEM cells assessed as growth inhibition after 72 hrs by Alamar Blue assay; format: functional, cell-based
[16] = Antitumor activity against human HCT116 cells xenografted in nude mouse assessed as tumor growth inhibition at 30 mg/kg,iv qd administered for 6 days measured on day 13 relative to control; format: functional, HCT-116
[17] = Antitumor activity against human HCT116 cells xenografted in nude mouse assessed as tumor growth inhibition at 30 mg/kg,iv qd administered for 6 days measured on day 30 relative to control; format: functional; conditions: HCT-116, iv, read-out: TGI
Mus musculus [18] = experiment: Toxicity in nude mouse xenografted with human HCT116 cells assessed as change in body weight at 30 mg/kg,iv qd administered for 6 days measured on day 30 relative to control; format: organism-based, HCT-116; parameters: dose 30 mg/kg; conditions: in vivo, 144 h
[19] = Cytotoxicity against human PC3 cells assessed as growth inhibition after 72 hrs by Alamar Blue assay; format: functional, cell-based; conditions: PC-3, 72 h
[20] = Induction of pEGFP-N1 DNA (unknown origin) interstand crosslinking after 2 hrs by alkaline agarose gel shift assay
CCRF-CEM [21] = experiment: Resistance factor, ratio of IC50 for vinblastine-resistant human CCRF-CEM cells to IC50 for human CCRF-CEM cells; format: functional
[22] = Antitumor activity against human H460 cells xenografted in nude mouse assessed as tumor growth inhibition at 30 mg/kg,iv qd administered for 6 days measured on day 15 relative to control; format: functional, NCI-H460
[23] = Antitumor activity against human H460 cells xenografted in nude mouse assessed as tumor growth inhibition at 30 mg/kg,iv qd administered for 6 days measured on day 37 relative to control; format: functional; conditions: NCI-H460, iv, read-out: TGI
Mus musculus [24] = experiment: Toxicity in nude mouse xenografted with human PC3 cells assessed as body weight loss at 40 mg/kg,iv administered every 2 days for 5 doses measured on day 13 relative to control; format: organism-based, PC-3; parameters: dose 40 mg/kg; conditions: in vivo, 48 h
Mus musculus [25] = experiment: Toxicity in nude mouse xenografted with human H460 cells assessed as body weight loss at 30 mg/kg,iv qd administered for 6 days measured on day 37 relative to control; format: organism-based; parameters: dose 30 mg/kg; conditions: in vivo, 144 h
[26] = Toxicity in mouse; format: organism-based; conditions: in vivo
Mus musculus [27] = experiment: Toxicity in nude mouse xenografted with human PC3 cells assessed as change in body weight at 40 mg/kg,iv administered every 2 days for 5 doses measured on day 38 relative to control; format: organism-based, PC-3; parameters: dose 40 mg/kg; conditions: in vivo, 48 h
[28] = Acute toxicity in iv dosed mouse administered for 14 days; format: organism-based; conditions: in vivo
Mus musculus [29] = experiment: Toxicity in nude mouse xenografted with human H460 cells assessed as body weight loss at 30 mg/kg,iv qd administered for 6 days measured on day 15 relative to control; format: organism-based; parameters: dose 30 mg/kg; conditions: in vivo, 144 h
NCI-H460 = experiment: Antitumor activity against human H460 cells xenografted in nude mouse assessed as survival at 30 mg/kg,iv qd administered for 6 days; format: functional, organism-based; parameters: dose 30 mg/kg
[30] = Antitumor activity against human PC3 cells xenografted in nude mouse assessed as tumor growth inhibition at 40 mg/kg,iv administered every 2 days for 5 doses measured on day 28 to 31 relative to control; format: functional, PC-3
[31] = Antitumor activity against human PC3 cells xenografted in nude mouse assessed as tumor growth inhibition at 40 mg/kg,iv administered every 2 days for 5 doses measured on day 38 relative to control; format: functional; conditions: PC-3, iv, read-out: TGI

CCc1c2c(nc3ccc(OC(=O)N4CCC(N5CCCCC5)CC4)cc13)-c1cc3c(c(=O)n1C2)COC(=O)[C@]3(O)CC [IRINOTECAN]
IC50 [1]: 25.1 µM | %max [2]: 90% | body weight change relative to control (Mus musculus [3]): -3% | IC50 (HT-29): 82.8 µM | %max [4]: 92% | inhibition in vivo at 30 mg/kg [5]: 85% | Activity (Mus musculus [6]): 8% | inhibition in vivo at 30 mg/kg [7]: 90% | Activity (HCT-116): Active | IC50 [8]: 7.53 µM | %max (Mus musculus [9]): 0% | Activity (H3347): Active | Activity (Mus musculus [10]): 8%

CN(C)CC(=O)Nc1ccc(NC(=O)Nc2ccc(N(CCCl)CCCl)cc2)cc1
IC50 [1]: 5.76 µM | IC50 [11]: 5.36 µM | IC50 [12]: 1.21 µM | body weight change relative to control (Mus musculus [3]): -3% | IC50 (HT-29): 20.1 µM | IC50 (CCRF-CEM [13]): 1340 nM | IC50 [14]: 850 nM | IC50 (CCRF-CEM [15]): 290 nM | %max [16]: 72% | inhibition in vivo at 30 mg/kg [17]: 51% | Activity (HCT-116): Active | Activity (Mus musculus [18]): 3% | IC50 [8]: 1.53 µM | IC50 [19]: 7.33 µM | Activity [20]: Dose-dependent effect | Ratio IC50 (CCRF-CEM [21]): 4.62

CN(C)CCNC(=O)c1cccc(NC(=O)Nc2ccc(N(CCCl)CCCl)cc2)c1
IC50 [11]: 14.8 µM | IC50 [12]: 38.3 µM | %max [22]: 17% | inhibition in vivo at 30 mg/kg [23]: 8% | body weight change relative to control (Mus musculus [3]): -7% | %max (Mus musculus [24]): -16% | %max [4]: 81% | IC50 (CCRF-CEM [13]): 1050 nM | Activity (Mus musculus [25]): -6% | IC50 [14]: 4850 nM | MTD [26]: 30 mg/kg | Activity (Mus musculus [27]): -2% | inhibition in vivo at 30 mg/kg [5]: 79% | LD50 at 336 h [28]: 76 mg/kg | %max (Mus musculus [29]): -16% | Activity (HCT-116): Active | Activity (NCI-H460): Active | IC50 [19]: 17.6 µM | Ratio IC50 (CCRF-CEM [21]): 0.85 | %max [30]: 94% | Activity (Mus musculus [10]): 0% | inhibition in vivo at 40 mg/kg [31]: 89%
